Experiment [1] has as its target JAK2 (Homo sapiens (Human), UniProt O60674). Nature of the experiment: Jak Biochemical HTRF Assay (JAK2). Particulars: JAK2 IC50, recombinant GST-tagged catalytic domain, [ATP] 8.5 μM, unit not given (compound concentrations tested given in nM).
Experiment [2] addresses JAK1 (Homo sapiens (Human), UniProt P23458). Nature of the experiment: Jak Biochemical HTRF Assay (JAK1). As to conditions: recombinant GST-tagged catalytic domain, [ATP] 31.8 μM, unit not given (compound concentrations tested given in nM). The text has this:
Jak Biochemical HTRF Assay Protocol
Subsequent reagent additions employed an Agilent Bravo.
On the technique in general: Time-resolved FRET reads energy transfer from a long-lived donor to a nearby acceptor.

Chain of JAK1 (P23458 875-1153): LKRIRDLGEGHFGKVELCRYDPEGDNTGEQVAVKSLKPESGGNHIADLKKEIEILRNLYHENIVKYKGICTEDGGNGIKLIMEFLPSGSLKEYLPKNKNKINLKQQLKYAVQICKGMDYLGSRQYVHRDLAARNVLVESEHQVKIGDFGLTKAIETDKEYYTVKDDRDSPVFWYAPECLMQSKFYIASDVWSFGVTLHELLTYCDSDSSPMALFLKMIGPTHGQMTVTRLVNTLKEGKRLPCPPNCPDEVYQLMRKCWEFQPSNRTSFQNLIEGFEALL
Chain of JAK2 (O60674 849-1124): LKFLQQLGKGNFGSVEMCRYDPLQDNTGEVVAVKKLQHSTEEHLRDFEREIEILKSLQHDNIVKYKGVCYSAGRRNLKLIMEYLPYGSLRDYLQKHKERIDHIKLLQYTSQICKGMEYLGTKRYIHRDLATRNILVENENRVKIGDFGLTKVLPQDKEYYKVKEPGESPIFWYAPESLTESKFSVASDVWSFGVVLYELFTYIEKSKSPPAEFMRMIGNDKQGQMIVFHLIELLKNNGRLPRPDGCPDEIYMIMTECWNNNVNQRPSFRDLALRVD

Regarding `CC(C)(C)OC(=O)CNC(c1ccc(Nc2nn([C@H]3COCC[C@@H]3C#N)c3cc[nH]c(=O)c23)cc1)C(F)(F)F` (single isomer, unassigned) [Example 1-40, tert-butyl N-{[(1R or 1S)-1-[4-({1-[(3R,4S)-4-cyanotetrahydro-2H-pyran-3-yl]-4-oxo-4,5-dihydro-1H-pyrazolo[4,3-c]pyridin-3-yl}amino)phenyl]-2,2,2-trifluoroethyl}glycinate], the values for the 50% inhibitory concentration (IC50) in experiment [1] and in experiment [2] were 0.78 nM and 0.16 nM, respectively.
The like results for `CC(C)(C)OC(=O)CNC(c1ccc(Nc2nn([C@H]3COCC[C@@H]3C#N)c3cc[nH]c(=O)c23)cc1)C(F)(F)F` (single isomer, unassigned) [Example 1-41, tert-butyl N-{(1S or 1R)-1-[4-({1-[(3R,4S)-4-cyanotetrahydro-2H-pyran-3-yl]-4-oxo-4,5-dihydro-1H-pyrazolo[4,3-c]pyridin-3-yl}amino)phenyl]-2,2,2-trifluoroethyl}glycinate] were, in that order, 0.6 nM and 0.14 nM.
The like results for `N#C[C@H]1CCOC[C@@H]1n1nc(Nc2ccc(C(N3CCCC3)C(F)(F)F)cc2)c2c(=O)[nH]ccc21` (single isomer, unassigned) [Example 1-42, (3R,4S)-3-[4-oxo-3-({4-[(1R or 1S)-2,2,2-trifluoro-1-pyrrolidin-1-ylethyl]phenyl}amino)-4,5-dihydro-1H-pyrazolo[4,3-c]pyridin-1-yl]tetrahydro-2H-pyran-4-carbonitrile] were, in that order, 0.13 nM and 0.05 nM.
The matching figures for `N#C[C@H]1CCOC[C@@H]1n1nc(Nc2ccc(C(N3CCCC3)C(F)(F)F)cc2)c2c(=O)[nH]ccc21` (single isomer, unassigned) [Example 1-43, (3R,4S)-3-[4-oxo-3-({4-[(1S or 1R)-2,2,2-trifluoro-1-pyrrolidin-1-ylethyl]phenyl}amino)-4,5-dihydro-1H-pyrazolo[4,3-c]pyridin-1-yl]tetrahydro-2H-pyran-4-carbonitrile]: 0.08 nM and 0.04 nM.
For `CC(c1ccc(Nc2nn([C@H]3COCC[C@@H]3C#N)c3cc[nH]c(=O)c23)cc1)n1nccn1` (single isomer, unassigned) [Example 1-44, (3R,4S)-3-[4-oxo-3-({4-[(1S or 1R)-1-(2H-1,2,3-triazol-2-yl)ethyl]phenyl}amino)-4,5-dihydro-1H-pyrazolo[4,3-c]pyridin-1-yl]tetrahydro-2H-pyran-4-carbonitrile], the IC50 in experiment [1] came to 0.18 nM; in experiment [2], 0.12 nM.
The like results for `CC(c1ccc(Nc2nn([C@H]3COCC[C@@H]3C#N)c3cc[nH]c(=O)c23)cc1)n1nccn1` (single isomer, unassigned) [Example 1-45, (3R,4S)-3-[4-oxo-3-({4-[(1R or 1S)-1-(2H-1,2,3-triazol-2-yl)ethyl]phenyl}amino)-4,5-dihydro-1H-pyrazolo[4,3-c]pyridin-1-yl]tetrahydro-2H-pyran-4-carbonitrile] were, in that order, 0.21 nM and 0.14 nM.
Turning to `CC1(C)CC1NC(c1ccc(Nc2nn([C@H]3COCC[C@@H]3C#N)c3cc[nH]c(=O)c23)cc1)C(F)(F)F` (single isomer, unassigned) [Example 1-46, (3R,4S)-3-{3-[(4S or 4R-{1S or 1R-[(2,2-dimethylcyclopropyl)amino]-2,2,2-trifluoroethyl}phenyl)amino]-4-oxo-4,5-dihydro-1H-pyrazolo[4,3-c]pyridin-1-yl}tetrahydro-2H-pyran-4-carbonitrile], the results for the IC50 in experiment [1] and in experiment [2] were 0.21 nM and 0.14 nM, respectively.
For `CC1(C)CC1NC(c1ccc(Nc2nn([C@H]3COCC[C@@H]3C#N)c3cc[nH]c(=O)c23)cc1)C(F)(F)F` (single isomer, unassigned) [Example 1-47, (3R,4S)-3-{3-[(4S or 4R-{1S or 1R-[(2,2-dimethylcyclopropyl)amino]-2,2,2-trifluoroethyl}phenyl)amino]-4-oxo-4,5-dihydro-1H-pyrazolo[4,3-c]pyridin-1-yl}tetrahydro-2H-pyran-4-carbonitrile], the figures for the IC50 in experiment [1] and in experiment [2] were 0.43 nM and 0.27 nM, respectively.
`CC1(C)CC1NC(c1ccc(Nc2nn([C@H]3COCC[C@@H]3C#N)c3cc[nH]c(=O)c23)cc1)C(F)(F)F` (single isomer, unassigned) [Example 1-48, (3R,4S)-3-{3-[(4S or 4R-{1S or 1R-[(2,2-dimethylcyclopropyl)amino]-2,2,2-trifluoroethyl}phenyl)amino]-4-oxo-4,5-dihydro-1H-pyrazolo[4,3-c]pyridin-1-yl}tetrahydro-2H-pyran-4-carbonitrile]: the IC50 in experiment [1] stood at 1.73 nM; in experiment [2] it was 0.65 nM.
The like results for `CC1(C)CC1NC(c1ccc(Nc2nn([C@H]3COCC[C@@H]3C#N)c3cc[nH]c(=O)c23)cc1)C(F)(F)F` (single isomer, unassigned) [Example 1-49, (3R,4S)-3-{3-[(4S or 4R-{1S or 1R-[(2,2-dimethylcyclopropyl)amino]-2,2,2-trifluoroethyl}phenyl)amino]-4-oxo-4,5-dihydro-1H-pyrazolo[4,3-c]pyridin-1-yl}tetrahydro-2H-pyran-4-carbonitrile] were, in that order, 0.3 nM and 0.18 nM.
The matching figures for `CC(C)NC(c1ccc(Nc2nn([C@H]3COCC[C@@H]3C#N)c3cc[nH]c(=O)c23)cc1)C(F)(F)F` (single isomer, unassigned) [Example 1-52, (3R,4S)-3-{4-oxo-3-[(4-{(1R or 1S)-2,2,2-trifluoro-1-[(1-methylethyl)amino]ethyl}phenyl)amino]-4,5-dihydro-1H-pyrazolo[4,3-c]pyridin-1-yl}tetrahydro-2H-pyran-4-carbonitrile]: 0.11 nM and 0.08 nM.
As for `CC(C)NC(c1ccc(Nc2nn([C@H]3COCC[C@@H]3C#N)c3cc[nH]c(=O)c23)cc1)C(F)(F)F` (single isomer, unassigned) [Example 1-53, (3R,4S)-3-{4-oxo-3-[(4-{[1S or 1R)-2,2,2-trifluoro-[(1-methylethyl)amino]ethyl}phenyl)amino]-4,5-dihydro-1H-pyrazolo[4,3-c]pyridin-1-yl}tetrahydro-2H-pyran-4-carbonitrile], the 50% inhibitory concentration (IC50) in experiment [1] is 0.09 nM; in experiment [2], 0.08 nM.
On to `CCNC(c1ccc(Nc2nn([C@H]3COCC[C@@H]3C#N)c3cc[nH]c(=O)c23)cc1)C(F)(F)F` (single isomer, unassigned) [Example 1-54, (3R,4S)-3-[3-({4-[(1R or 1S)-1-(ethylamino)-2,2,2-trifluoroethyl]phenyl}amino)-4-oxo-4,5-dihydro-1H-pyrazolo[4,3-c]pyridin-1-yl]tetrahydro-2H-pyran-4-carbonitrile], for which the IC50 in experiment [1] stood at 0.14 nM; in experiment [2], 0.07 nM.
The like results for `CCNC(c1ccc(Nc2nn([C@H]3COCC[C@@H]3C#N)c3cc[nH]c(=O)c23)cc1)C(F)(F)F` (single isomer, unassigned) [Example 1-55, (3R,4S)-3-[3-({4-[(1S or 1R)-1-(ethylamino)-2,2,2-trifluoroethyl]phenyl}amino)-4-oxo-4,5-dihydro-1H-pyrazolo[4,3-c]pyridin-1-yl] tetrahydro-2H-pyran-4-carbonitrile] were, in that order, 0.12 nM and 0.08 nM.

As usually defined, the IC50 is the concentration needed to halve the response being measured.

The record behind these values is US9957265B2, “N-(2-cyano heterocyclyl) pyrazolo pyridones as janus kinase inhibitors” (Merck Sharp & Dohme Corp., priority 2013, dated 2018).
